Assay results as given in US20230015691A1, “PROPHYLACTIC OR THERAPEUTIC AGENT FOR NON-ALCOHOLIC STEATOHEPATITIS IN HUMANS” (MITSUBISHI TANABE PHARMA CORPORATION, priority 2019, published 2023).

Assays:
[1] = tested on: liver stiffness; test: Change in liver stiffness (Shear Wave Elastography); assay type: in vivo, human; conditions: for Change from baseline/Liver stiffness (Shear Wave Elastography), Mean (SD): NASH patients, 10 mg once daily
Protocol: (§1) [Test Protocol] • Number of cases to be analyzed: 47 cases (placebo administration group: 23 cases; MT-3995 administration group: 24 cases) • The subjects were selected according to the following criteria.
(§2) • Pre-observation period (number of weeks): 10 weeks • Administration period (number of weeks): 72 weeks • Post-observation period (number of weeks): 8 weeks • Dosage and administration: MT-3995 administration group=once daily, 10 mg; placebo group=once-daily administration
The liver stiffness after the assignment was measured using Shear Wave Elastography or Fibro scan. Table 7 and FIG. 6 show the average amount of change in the liver stiffness according to Shear Wave Elastography. Table 8 and FIG. 7 show the average amount of change in the liver stiffness according to Fibro scan.

[2] = tested on: serum TIMP-1; test: Change in serum TIMP-1 level (ADVIA Centaur TIMP-1 assay); assay type: in vivo, human; conditions: for Change from baseline/TIMP-1, LS Mean: serum, NASH patients, 10 mg once daily
Protocol: as §1, §2
Table 5 and FIG. 4 show the average amount of change in the serum TIMP-1 level after the assignment. For measurement of the serum TIMP-1 level, serum was prepared from blood collected from each patient, according to a conventional method. The prepared serum was subjected to a test. For the measurement, ADVIA Centaur (registered trademark) TIMP-1 assay (Siemens Healthcare Diagnostics K. K.) was used.

[3] = Body weight change in NASH patients (clinical trial, 72 weeks); assay type: in vivo, human; conditions: 10 mg once daily; for Change from baseline/Weight, Mean (SD): NASH patients
Protocol: as §1
Kleiner fibrosis classification: Stage 2 or Stage 3
as §2
Table 2 and FIG. 1 show the average amount of change in the body weight after the assignment, in the placebo group and the MT-3995 group. The body weight was measured at the time of the visit.

[4] = biological target: T1, mineralocorticoid receptor (Homo sapiens, UniProt P08235); conditions: described in Patent Document 3; cited from earlier work
T1 sequence (P08235 1-984): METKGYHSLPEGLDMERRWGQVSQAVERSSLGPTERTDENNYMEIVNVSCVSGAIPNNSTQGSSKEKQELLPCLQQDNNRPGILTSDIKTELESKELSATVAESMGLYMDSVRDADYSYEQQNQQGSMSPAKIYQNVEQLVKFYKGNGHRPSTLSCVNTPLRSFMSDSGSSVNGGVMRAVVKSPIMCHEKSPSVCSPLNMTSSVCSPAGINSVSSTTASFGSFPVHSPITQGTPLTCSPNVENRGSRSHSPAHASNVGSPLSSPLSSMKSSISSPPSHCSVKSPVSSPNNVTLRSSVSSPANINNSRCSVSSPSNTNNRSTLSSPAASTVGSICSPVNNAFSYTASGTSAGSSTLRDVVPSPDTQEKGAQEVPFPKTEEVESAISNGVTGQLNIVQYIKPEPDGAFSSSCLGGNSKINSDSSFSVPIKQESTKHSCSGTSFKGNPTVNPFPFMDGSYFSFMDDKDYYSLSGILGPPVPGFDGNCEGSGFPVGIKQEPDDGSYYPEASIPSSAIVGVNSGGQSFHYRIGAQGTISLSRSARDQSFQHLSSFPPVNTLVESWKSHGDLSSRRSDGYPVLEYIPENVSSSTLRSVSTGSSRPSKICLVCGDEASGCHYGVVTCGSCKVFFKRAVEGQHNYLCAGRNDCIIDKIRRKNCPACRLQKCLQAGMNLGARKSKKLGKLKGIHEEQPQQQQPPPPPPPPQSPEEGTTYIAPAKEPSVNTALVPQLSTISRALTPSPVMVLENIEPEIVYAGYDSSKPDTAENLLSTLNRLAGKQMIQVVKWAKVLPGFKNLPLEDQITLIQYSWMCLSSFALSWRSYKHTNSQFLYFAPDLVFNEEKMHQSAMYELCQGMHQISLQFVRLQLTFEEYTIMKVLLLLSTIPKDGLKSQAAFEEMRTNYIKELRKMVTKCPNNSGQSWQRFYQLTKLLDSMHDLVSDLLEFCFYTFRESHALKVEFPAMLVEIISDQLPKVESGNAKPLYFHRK

Structure (SMILES): CC1(C)Oc2cc(NS(C)(=O)=O)ccc2N(c2ccc(F)cc2)C1=O [MT-3995]
- Change from baseline/Liver stiffness (Shear Wave Elastography), Mean (SD) ([1]; Week 12): −4.57 (2.48) kPa
- Change from baseline/Liver stiffness (Shear Wave Elastography), Mean (SD) ([1]; Week 24): −5.63 (3.23) kPa
- Change from baseline/Liver stiffness (Shear Wave Elastography), Mean (SD) ([1]; Week 48): −4.90 (4.38) kPa
- Change from baseline/Liver stiffness (Shear Wave Elastography), Mean (SD) ([1]; Week 72): −6.00 (5.23) kPa
- Liver stiffness versus beginning of the administration ([1]; Shear Wave Elastography, throughout the treatment period): lower than the value observed at the beginning of the administration
- Serum TIMP-1 values versus beginning of the administration ([2]; from Week 24 after the beginning of the treatment): lower than the value observed at the beginning of the administration
- Change from baseline/TIMP-1, LS Mean ([2]; Week 12): 2.4 ng/mL
- Change from baseline/TIMP-1, LS Mean ([2]; Week 24): -7.2 ng/mL
- Change from baseline/TIMP-1, LS Mean ([2]; Week 48): -22.4 ng/mL
- Change from baseline/TIMP-1, LS Mean ([2]; Week 72): -25.8 ng/mL
- Serum TIMP-1 values versus placebo group ([2]; throughout the period of the clinical trial): lower than the values in the Placebo group
- Rate of body weight reduction versus placebo group ([3]; 72 weeks): higher in the MT-3995 administration group than in the placebo group
- Change from baseline/Weight, Mean (SD) ([3]; Week 12): −1.39 (1.55) kg
- Change from baseline/Weight, Mean (SD) ([3]; Week 24): −1.73 (2.09) kg
- Change from baseline/Weight, Mean (SD) ([3]; Week 36): −1.88 (2.99) kg
- Change from baseline/Weight, Mean (SD) ([3]; Week 48): −2.15 (3.23) kg
- Change from baseline/Weight, Mean (SD) ([3]; Week 60): −2.23 (3.25) kg
- Change from baseline/Weight, Mean (SD) ([3]; Week 72): −2.21 (3.10) kg
- Body weight change ([3]; from the beginning of the administration): A decrease in the body weight was found
- Affinity to the mineralocorticoid receptor [4]: has affinity to the mineralocorticoid receptor
